Results from US8952024B2, “Herbicidal pyrimidone derivatives” (E I du Pont de Nemours and Company, priority 2009, dated 2015).
Where two headings read alike, the source gives them in different places.

Legend:
Assay in all cases: Test B pre-/postemergence plant response
Assay type in all cases: in vivo
[1] = test system: downy bromegrass (Bromus tectorum)
Method in brief: (§1)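 Test compounds, formulated in a non-phytotoxic solvent mixture with surfactant, are applied to the soil surface (loam and sand blend) right after seeding, or sprayed over plants at the 1- to 4-leaf stage grown in peat moss/vermiculite medium. After 13 to 15 days under glasshouse conditions, each species is scored visually from 0 (no effect) to 100 (complete control) against controls.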

[2] = test system: ragweed (common ragweed, Ambrosia elatior); settings: for pest or weed control at 31 g/ha: 31 g ai/ha; for pest or weed control at 62 g/ha: 62 g ai/ha; for pest or weed control at 125 g/ha: 125 g ai/ha
Method in brief: as §1

[3] = test system: green foxtail (Setaria viridis); settings: for pest or weed control at 31 g/ha: 31 g ai/ha; for pest or weed control at 62 g/ha: 62 g ai/ha; for pest or weed control at 125 g/ha: 125 g ai/ha
Method in brief: as §1

[4] = test system: Italian ryegrass (Lolium multiflorum); settings: for pest or weed control at 31 g/ha: 31 g ai/ha; for pest or weed control at 62 g/ha: 62 g ai/ha; for pest or weed control at 125 g/ha: 125 g ai/ha
Method in brief: as §1

[5] = test system: large crabgrass (Digitaria sanguinalis); settings: for pest or weed control at 31 g/ha: 31 g ai/ha; for pest or weed control at 62 g/ha: 62 g ai/ha; for pest or weed control at 125 g/ha: 125 g ai/ha
Method in brief: as §1

[6] = test system: woolly cupgrass (Eriochloa villosa); settings: for pest or weed control at 31 g/ha: 31 g ai/ha; for pest or weed control at 62 g/ha: 62 g ai/ha; for pest or weed control at 125 g/ha: 125 g ai/ha
Method in brief: as §1

[7] = test system: morningglory (Ipomoea coccinea); settings: for pest or weed control at 125 g/ha: 125 g ai/ha
Method in brief: as §1

[8] = Preemergence, 250 g ai/ha, 0 to 100 scale
[9] = Ambrosia artemisiifolia, pre-emergence, 360 h, Preemergence, scale 0 to 100 (0 no effect, 100 complete control), read-out: Plant response rating, Ragweed
[10] = Setaria viridis, pre-emergence, Preemergence, scale 0 to 100 (0 no effect, 100 complete control), read-out: Plant response rating, Foxtail, Green
[11] = Lolium multiflorum, pre-emergence, Preemergence, scale 0 to 100 (0 no effect, 100 complete control), read-out: Plant response rating, Ryegrass, Italian
[12] = Digitaria sanguinalis, pre-emergence, Preemergence, scale 0 to 100 (0 no effect, 100 complete control), read-out: Plant response rating, Crabgrass, Large
[13] = Eriochloa villosa, pre-emergence, Preemergence, scale 0 to 100 (0 no effect, 100 complete control), read-out: Plant response rating, Cupgrass, Woolly

Structure (SMILES): COCCn1c(-c2cc(F)cc(F)c2)ncc(C(=O)C2=C(O)C3CCC(C3)C2=O)c1=O (stereo not drawn) [Compound 243, 2-(3,5-difluorophenyl)-5-[(2-hydroxy-4-oxobicyclo[3.2.1]oct-2-en-3-yl)carbonyl]-3-(2-methoxyethyl)-4(3H)-pyrimidinone]
- pest or weed control at 250 g/ha ([1]; Bromus tectorum, post-emergence, Postemergence, 250 g ai/ha, scale 0 to 100 (0 no effect, 100 complete control), 13 to 15 days, read-out: Plant response rating, Bromegrass, Downy): 100%
- pest or weed control at 31 g/ha ([1]; Bromus tectorum, pre-emergence, Preemergence, 31 g ai/ha, scale 0 to 100 (0 no effect, 100 complete control), read-out: Plant response rating, Bromegrass, Downy): 0%
- pest or weed control at 62 g/ha ([1]; Bromus tectorum, pre-emergence, Preemergence, 62 g ai/ha, scale 0 to 100 (0 no effect, 100 complete control), read-out: Plant response rating, Bromegrass, Downy): 40%
- pest or weed control at 125 g/ha ([1]; Bromus tectorum, pre-emergence, Preemergence, 125 g ai/ha, scale 0 to 100, 0 no effect, 100 complete control, read-out: Plant response rating, Bromegrass, Downy): 60%
- Bromegrass, Downy plant response rating [1, 8]: 70
- pest or weed control at 31 g/ha ([2]; Ambrosia artemisiifolia, post-emergence, 360 h, Postemergence, 0 to 100 scale (0 no effect, 100 complete control), read-out: Plant response rating, Ragweed): 90%
- pest or weed control at 62 g/ha ([2]; Ambrosia artemisiifolia, post-emergence, 360 h, Postemergence, scale 0 to 100 (0 no effect, 100 complete control), read-out: Plant response rating, Ragweed): 95%
- pest or weed control at 125 g/ha ([2]; Ambrosia artemisiifolia, post-emergence, 360 h, Postemergence, scale 0 (no effect) to 100 (complete control), 13 to 15 days, read-out: Plant response rating, Ragweed): 98%
- pest or weed control at 250 g/ha ([2]; Ambrosia artemisiifolia, post-emergence, 360 h, Postemergence, 250 g ai/ha, scale 0 to 100 (0 no effect, 100 complete control), 13 to 15 days, read-out: Plant response rating, Ragweed): 100%
- pest or weed control at 31 g/ha [2, 9]: 85%
- pest or weed control at 62 g/ha [2, 9]: 95%
- pest or weed control at 125 g/ha ([2]; Ambrosia artemisiifolia, pre-emergence, 360 h, Preemergence, scale 0 to 100, 0 no effect, 100 complete control, read-out: Plant response rating, Ragweed): 98%
- Ragweed plant response rating [2, 8]: 98
- Foxtail, Green plant response rating [3, 8]: 100
- pest or weed control at 31 g/ha ([3]; Setaria viridis, post-emergence, Postemergence, 0 to 100 scale (0 no effect, 100 complete control), read-out: Plant response rating, Foxtail, Green): 98%
- pest or weed control at 62 g/ha ([3]; Setaria viridis, post-emergence, Postemergence, scale 0 to 100 (0 no effect, 100 complete control), read-out: Plant response rating, Foxtail, Green): 98%
- pest or weed control at 125 g/ha ([3]; Setaria viridis, post-emergence, Postemergence, scale 0 (no effect) to 100 (complete control), 13 to 15 days, read-out: Plant response rating, Foxtail, Green): 100%
- pest or weed control at 250 g/ha ([3]; Setaria viridis, post-emergence, Postemergence, 250 g ai/ha, scale 0 to 100 (0 no effect, 100 complete control), 13 to 15 days, read-out: Plant response rating, Foxtail, Green): 100%
- pest or weed control at 31 g/ha [3, 10]: 35%
- pest or weed control at 62 g/ha [3, 10]: 100%
- pest or weed control at 125 g/ha ([3]; Setaria viridis, pre-emergence, Preemergence, scale 0 to 100, 0 no effect, 100 complete control, read-out: Plant response rating, Foxtail, Green): 100%
- pest or weed control at 31 g/ha ([4]; Lolium multiflorum, post-emergence, Postemergence, 0 to 100 scale (0 no effect, 100 complete control), read-out: Plant response rating, Ryegrass, Italian): 60%
- pest or weed control at 62 g/ha ([4]; Lolium multiflorum, post-emergence, Postemergence, scale 0 to 100 (0 no effect, 100 complete control), read-out: Plant response rating, Ryegrass, Italian): 85%
- pest or weed control at 125 g/ha ([4]; Lolium multiflorum, post-emergence, Postemergence, scale 0 (no effect) to 100 (complete control), 13 to 15 days, read-out: Plant response rating, Ryegrass, Italian): 85%
- pest or weed control at 250 g/ha ([4]; Lolium multiflorum, post-emergence, Postemergence, 250 g ai/ha, scale 0 to 100 (0 no effect, 100 complete control), 13 to 15 days, read-out: Plant response rating, Ryegrass, Italian): 95%
- pest or weed control at 31 g/ha [4, 11]: 0%
- pest or weed control at 62 g/ha [4, 11]: 10%
- pest or weed control at 125 g/ha ([4]; Lolium multiflorum, pre-emergence, Preemergence, scale 0 to 100, 0 no effect, 100 complete control, read-out: Plant response rating, Ryegrass, Italian): 45%
- Ryegrass, Italian plant response rating [4, 8]: 70
- pest or weed control at 31 g/ha ([5]; Digitaria sanguinalis, post-emergence, Postemergence, 0 to 100 scale (0 no effect, 100 complete control), read-out: Plant response rating, Crabgrass, Large): 95%
- pest or weed control at 62 g/ha ([5]; Digitaria sanguinalis, post-emergence, Postemergence, scale 0 to 100 (0 no effect, 100 complete control), read-out: Plant response rating, Crabgrass, Large): 100%
- pest or weed control at 125 g/ha ([5]; Digitaria sanguinalis, post-emergence, Postemergence, scale 0 (no effect) to 100 (complete control), 13 to 15 days, read-out: Plant response rating, Crabgrass, Large): 100%
- pest or weed control at 250 g/ha ([5]; Digitaria sanguinalis, post-emergence, Postemergence, 250 g ai/ha, scale 0 to 100 (0 no effect, 100 complete control), 13 to 15 days, read-out: Plant response rating, Crabgrass, Large): 100%
- pest or weed control at 31 g/ha [5, 12]: 100%
- pest or weed control at 62 g/ha [5, 12]: 100%
- pest or weed control at 125 g/ha ([5]; Digitaria sanguinalis, pre-emergence, Preemergence, scale 0 to 100, 0 no effect, 100 complete control, read-out: Plant response rating, Crabgrass, Large): 100%
- Crabgrass, Large plant response rating [5, 8]: 100
- pest or weed control at 31 g/ha ([6]; Eriochloa villosa, post-emergence, Postemergence, 0 to 100 scale (0 no effect, 100 complete control), read-out: Plant response rating, Cupgrass, Woolly): 95%
- pest or weed control at 62 g/ha ([6]; Eriochloa villosa, post-emergence, Postemergence, scale 0 to 100 (0 no effect, 100 complete control), read-out: Plant response rating, Cupgrass, Woolly): 95%
- pest or weed control at 125 g/ha ([6]; Eriochloa villosa, post-emergence, Postemergence, scale 0 (no effect) to 100 (complete control), 13 to 15 days, read-out: Plant response rating, Cupgrass, Woolly): 100%
- pest or weed control at 250 g/ha ([6]; Eriochloa villosa, post-emergence, Postemergence, 250 g ai/ha, scale 0 to 100 (0 no effect, 100 complete control), 13 to 15 days, read-out: Plant response rating, Cupgrass, Woolly): 100%
- pest or weed control at 31 g/ha [6, 13]: 75%
- pest or weed control at 62 g/ha [6, 13]: 95%
- pest or weed control at 125 g/ha ([6]; Eriochloa villosa, pre-emergence, Preemergence, scale 0 to 100, 0 no effect, 100 complete control, read-out: Plant response rating, Cupgrass, Woolly): 95%
- Cupgrass, Woolly plant response rating [6, 8]: 100
- pest or weed control at 31 g/ha ([7]; Ipomoea, post-emergence, Postemergence, 31 g ai/ha, 0 to 100 scale (0 no effect, 100 complete control), read-out: Plant response rating, Morningglory): 95%
- pest or weed control at 62 g/ha ([7]; Ipomoea, post-emergence, Postemergence, 62 g ai/ha, scale 0 to 100 (0 no effect, 100 complete control), read-out: Plant response rating, Morningglory): 100%
- pest or weed control at 125 g/ha ([7]; Ipomoea, post-emergence, Postemergence, scale 0 (no effect) to 100 (complete control), 13 to 15 days, read-out: Plant response rating, Morningglory): 100%
- pest or weed control at 250 g/ha ([7]; Ipomoea, post-emergence, Postemergence, 250 g ai/ha, scale 0 to 100 (0 no effect, 100 complete control), 13 to 15 days, read-out: Plant response rating, Morningglory): 100%
- pest or weed control at 125 g/ha ([7]; Ipomoea, pre-emergence, Preemergence, scale 0 to 100, 0 no effect, 100 complete control, read-out: Plant response rating, Morningglory): 98%
- Morningglory plant response rating [7, 8]: 100
